How the values were obtained:
Type in all cases: cell-based, human
[1] = tested on: phosphorylated STAT3 (Tyr705) over pSTAT1 (S727); assay: Western blot, pSTAT3 (Tyr705) and pSTAT1 (S727) in DU145 cells; details: 24 hrs
[2] = tested on: LPS-induced IL-10 and IL-12p70 secretion in dendritic cells; assay: ELISA of secreted IL-10 and IL-12p70 in LPS-stimulated dendritic cells; details: 24 hrs
Procedure: Low platelet peripheral blood mononuclear cells (PBMCs) were isolated from peripheral blood of healthy donors by Ficoll-Paque density centrifugation. Monocytes were derived from the above PBMCs by immunomagnetic selection with CD14+ microbeads (Pan Monocyte Isolation Kit from Miltenyi Biotec) and seeded at s 0.5×10^6 monocytes/ml in CellGro medium supplemented with GM-CSF (100 ng/ml) and IL-4 (20 ng/ml) to obtain immature dendritic cells (iDCs). Cytokines were replenished after 72 hrs and 24 hrs after incubation, iDCs were stimulated with 30 ng/ml LPS to obtain mature dendritic cells (moDCs). Test compounds were added into the wells 1 hr prior to the LPS treatment and co-incubated with LPS for another 23 hrs. Supernatant was collected for the detection of secreted IL-10 and IL-12p70 using a standard ELISA kit and cells were collected and markers identified by flow cytometry.
The effects of compounds 323-1 and 323-2 and various controls on the LPS-induced expression of cytokines IL-10, IL-12p70, co-stimulatory molecules and maturation markers (CD80, CD83, CD86, HLA-DR, CCR7) and programmed death-ligand 1 (PD-L1) and programmed death-ligand 2 (PD-L2) were determined.

[3] = tested on: PC3, 22Rv1, LNCaP, EPT3-M1-STAT3-GFP cells; assay: MTS cell proliferation assay; details: FIGS. 1-4
Procedure: PC3, 22Rv1, LNCaP, EPT3-M1-STAT3 cells were seeded in 96-well plates for 24 hrs followed by treatment with different doses of 323-1 or 323-2. MTS assay was done after 3 days by adding 10 μl/well CellTiter 96@ AQueous One Solution Reagent (Promega, Madison, Wis., USA) for 4 hrs and the absorbance at 490 nm recorded using a Biotek machine.
To obtain the results shown in FIGS. 1-4, different cell lines were treated with indicated doses of compounds 323-1 and 323-2 for 72 hrs. All data are represented as the average±s.e.m (n=3). Significance was verified by using unpaired two-tailed Student's t-test. *p s 0.05 The total synthesis of compounds 323-1 and 323-2 was conducted as previously reported by Zhang et al. (Journal of the American Chemical Society. 2017; 139: 5558-67). The chemical structures of compounds 323-1 and 323-2 were validated by ^1H NMR, ^13C NMR.

STAT3 activity = assay: STAT3 luciferase reporter assay in HEK293T cells with IL-6; details: 20 ng/ml IL-6, 24 hrs, compared with cryptotanshinone
Procedure: Luciferase activity was measured by the Dual Luciferase Assay Kit (Promega) using a Luminescence Microplate Reader (Biotek). Values were normalized to Renilla luciferase activity of DMSO vehicle.
All data are represented as the average±s.e.m (n=3). Significance was verified by using unpaired two-tailed Student's t-test. *p s 0.05.

[4] = tested on: DNA-binding domain of STAT1, STAT3, STAT5A, STAT5B; assay: STAT family DNA binding assay on nuclear extracts of DU145 cells; details: 5-20 μM, 24 hrs
Procedure: The nuclear extraction was performed according to the STAT Family Transcription Factor Assay Kit (Abcam, ab207228). First, cells were washed with ice-cold PBS and Phosphatase Inhibitors Cocktail (125 mM NaF, […] p-glycerophosphatase, 250 mM PNPP, 25 mM NaVO3) in ice-cold PBVS was added and cells scraped off the dish. Then cells were collected at 300×g for 5 minutes at 4° C. The pellet was resuspended in hypotonic buffer (20 mM Hepes pH7.5, 5 mM NaF, 10 μM Na2MoO4, 0.1 mM EDTA) and 10% NP-40 was added to a final concentration 0.5% and mixed well. The mixture was centrifugated at 4° C. for 30 seconds in a microcentrifuge and supernatant was discarded. […] Stop solution was added when the wells turned medium to dark blue followed by measurement of absorbance at OD 450 nm. […]

How did the “Expression of phosphorylated STAT3 at Tyr705 compared with S3I-201” value [1] turn out when `C[C@@H]1CCC(c2cc3c4c(cncc4c2)[C@@H](C)C3)=C1C=O` [323-2, (15S,2R)-Delavatine A] was run?
The value was “better effect than S3I-201”.

What about the “Selectivity, phosphorylated STAT3 (Tyr705) over pSTAT1 (S727)” value [1] of the same molecule?
Its value is “selective inhibitory effect”.

And the “Secretion of IL-10 and IL-12p70” value [2]?
Its value is “significantly reduced”.

And the “Inhibition of proliferation of tumor-initiating and other tumor cells” value [3]?
Its value is “efficiently inhibit the proliferation”.

And the “Inhibitory effect on STAT3 activation (luciferase reporter)” value (STAT3 activity)?
Its value is “stronger inhibitory effect on STAT3 activation than cryptotanshinone”.

What about the “Effect on DNA binding of STAT1, STAT3, STAT5A, STAT5B” value [4] of the same molecule?
The value was “neither 323-1 nor 323-2 affected”.
